# Data as given in ChEMBL document CHEMBL4138175, “Newly designed organotin(IV) carboxylates with peptide linkage: Synthesis, structural elucidation, physicochemical characterizations and pharmacological investigations” (Eur J Med Chem, 2018).
# Calls of active or inactive are those of the source. The rule behind the calls is not given here.
# Test system: NCI-H157
# Assay: Cytotoxicity against human NCI-H157 cells at 100 uM after 48 hrs by sulforhodamine B assay
# Assay type: functional
row,Substance,Activity
1,Dioctylstannanediyl bis 2-(4-methoxy-2-nitrophenylcarbamoyl)benzoate,63.7%
2,"(1,10-Phenanthroline) trimethylstannyl 2-(4-methoxy-2-nitrophenylcarbamoyl)benzoate",55.5%

# Test system: NCI-H157
# Assay: Cytotoxicity against human NCI-H157 cells at 10 uM after 48 hrs by sulforhodamine B assay
# Assay type: functional
row,Substance,Activity
1,Dioctylstannanediyl bis 2-(4-methoxy-2-nitrophenylcarbamoyl)benzoate,59.1%
2,"(1,10-Phenanthroline) trimethylstannyl 2-(4-methoxy-2-nitrophenylcarbamoyl)benzoate",52.4%

# Test system: NCI-H157
# Assay: Cytotoxicity against human NCI-H157 cells at 1 uM after 48 hrs by sulforhodamine B assay
# Assay type: functional
row,Substance,Activity
1,Dioctylstannanediyl bis 2-(4-methoxy-2-nitrophenylcarbamoyl)benzoate,54.3%
2,"(1,10-Phenanthroline) trimethylstannyl 2-(4-methoxy-2-nitrophenylcarbamoyl)benzoate",47.1%

# Test system: NCI-H157
# Assay: Cytotoxicity against human NCI-H157 cells at 0.1 uM after 48 hrs by sulforhodamine B assay
# Assay type: functional
row,Substance,Activity
1,Dioctylstannanediyl bis 2-(4-methoxy-2-nitrophenylcarbamoyl)benzoate,48.9%
2,"(1,10-Phenanthroline) trimethylstannyl 2-(4-methoxy-2-nitrophenylcarbamoyl)benzoate",44%

# Test system: Leishmania major
# Assay: Antileishmanial activity against Leishmania major promastigotes at 100 uM after 72 hrs by MTT assay relative to control
# Assay type: functional
row,Substance,Activity
1,Dioctylstannanediyl bis 2-(4-methoxy-2-nitrophenylcarbamoyl)benzoate,58.8%
2,"(1,10-Phenanthroline) trimethylstannyl 2-(4-methoxy-2-nitrophenylcarbamoyl)benzoate",52.7%

# Test system: Leishmania major
# Assay: Antileishmanial activity against Leishmania major promastigotes at 10 uM after 72 hrs by MTT assay relative to control
# Assay type: functional
row,Substance,Activity
1,Dioctylstannanediyl bis 2-(4-methoxy-2-nitrophenylcarbamoyl)benzoate,55.2%
2,"(1,10-Phenanthroline) trimethylstannyl 2-(4-methoxy-2-nitrophenylcarbamoyl)benzoate",58.4%

# Test system: Leishmania major
# Assay: Antileishmanial activity against Leishmania major promastigotes at 1 uM after 72 hrs by MTT assay relative to control
# Assay type: functional
row,Substance,Activity
1,Dioctylstannanediyl bis 2-(4-methoxy-2-nitrophenylcarbamoyl)benzoate,47.1%
2,"(1,10-Phenanthroline) trimethylstannyl 2-(4-methoxy-2-nitrophenylcarbamoyl)benzoate",57.9%

# Test system: Leishmania major
# Assay: Antileishmanial activity against Leishmania major promastigotes at 0.1 uM after 72 hrs by MTT assay relative to control
# Assay type: functional
row,Substance,Activity
1,Dioctylstannanediyl bis 2-(4-methoxy-2-nitrophenylcarbamoyl)benzoate,42.9%
2,"(1,10-Phenanthroline) trimethylstannyl 2-(4-methoxy-2-nitrophenylcarbamoyl)benzoate",56.2%

# Test system: Klebsiella pneumoniae
# Assay: Antibacterial activity against Klebsiella pneumoniae assessed as zone of inhibition after 24 to 48 hrs by well diffusion method
# Assay type: functional
row,Substance,inhibition zone (IZ)
1,Dioctylstannanediyl bis 2-(4-methoxy-2-nitrophenylcarbamoyl)benzoate,22.3 mm
2,"(1,10-Phenanthroline) trimethylstannyl 2-(4-methoxy-2-nitrophenylcarbamoyl)benzoate",27.7 mm

# Test system: Streptococcus pyogenes
# Assay: Antibacterial activity against Streptococcus pyogenes assessed as zone of inhibition after 24 to 48 hrs by well diffusion method
# Assay type: functional
row,Substance,inhibition zone (IZ)
1,Dioctylstannanediyl bis 2-(4-methoxy-2-nitrophenylcarbamoyl)benzoate,12 mm
2,"(1,10-Phenanthroline) trimethylstannyl 2-(4-methoxy-2-nitrophenylcarbamoyl)benzoate",15 mm

# Test system: Staphylococcus epidermidis
# Assay: Antibacterial activity against Staphylococcus epidermidis assessed as zone of inhibition after 24 to 48 hrs by well diffusion method
# Assay type: functional
row,Substance,inhibition zone (IZ)
1,Dioctylstannanediyl bis 2-(4-methoxy-2-nitrophenylcarbamoyl)benzoate,11.3 mm
2,"(1,10-Phenanthroline) trimethylstannyl 2-(4-methoxy-2-nitrophenylcarbamoyl)benzoate",inactive

# Test system: Staphylococcus aureus
# Assay: Antibacterial activity against Staphylococcus aureus assessed as zone of inhibition after 24 to 48 hrs by well diffusion method
# Assay type: functional
row,Substance,inhibition zone (IZ)
1,Dioctylstannanediyl bis 2-(4-methoxy-2-nitrophenylcarbamoyl)benzoate,inactive
2,"(1,10-Phenanthroline) trimethylstannyl 2-(4-methoxy-2-nitrophenylcarbamoyl)benzoate",5.66 mm

# Test system: Serratia marcescens
# Assay: Antibacterial activity against Serratia marcescens assessed as zone of inhibition after 24 to 48 hrs by well diffusion method
# Assay type: functional
row,Substance,inhibition zone (IZ)
1,Dioctylstannanediyl bis 2-(4-methoxy-2-nitrophenylcarbamoyl)benzoate,5 mm
2,"(1,10-Phenanthroline) trimethylstannyl 2-(4-methoxy-2-nitrophenylcarbamoyl)benzoate",20 mm

# Test system: Pseudomonas aeruginosa
# Assay: Antibacterial activity against Pseudomonas aeruginosa assessed as zone of inhibition after 24 to 48 hrs by well diffusion method
# Assay type: functional
row,Substance,inhibition zone (IZ)
1,Dioctylstannanediyl bis 2-(4-methoxy-2-nitrophenylcarbamoyl)benzoate,inactive
2,"(1,10-Phenanthroline) trimethylstannyl 2-(4-methoxy-2-nitrophenylcarbamoyl)benzoate",11.3 mm

# Test system: Escherichia coli
# Assay: Antibacterial activity against Escherichia coli assessed as zone of inhibition after 24 to 48 hrs by well diffusion method
# Assay type: functional
row,Substance,inhibition zone (IZ)
1,Dioctylstannanediyl bis 2-(4-methoxy-2-nitrophenylcarbamoyl)benzoate,inactive
2,"(1,10-Phenanthroline) trimethylstannyl 2-(4-methoxy-2-nitrophenylcarbamoyl)benzoate",20.7 mm

# Test system: Klebsiella pneumoniae
# Assay: Antibacterial activity against Klebsiella pneumoniae assessed as zone of inhibition by measuring activity index after 24 to 48 hrs by well diffusion method relative to tetracycline
# Assay type: functional, organism-based
row,Substance,Activity index
1,Dioctylstannanediyl bis 2-(4-methoxy-2-nitrophenylcarbamoyl)benzoate,1.59
2,"(1,10-Phenanthroline) trimethylstannyl 2-(4-methoxy-2-nitrophenylcarbamoyl)benzoate",1.98

# Test system: Klebsiella pneumoniae
# Assay: Antibacterial activity against Klebsiella pneumoniae assessed as zone of inhibition by measuring activity index after 24 to 48 hrs by well diffusion method relative to ampicillin
# Assay type: functional, organism-based
row,Substance,Activity index
1,Dioctylstannanediyl bis 2-(4-methoxy-2-nitrophenylcarbamoyl)benzoate,3.72
2,"(1,10-Phenanthroline) trimethylstannyl 2-(4-methoxy-2-nitrophenylcarbamoyl)benzoate",4.61

# Test system: Klebsiella pneumoniae
# Assay: Antibacterial activity against Klebsiella pneumoniae assessed as zone of inhibition by measuring activity index after 24 to 48 hrs by well diffusion method relative to amoxicillin
# Assay type: functional, organism-based
row,Substance,Activity index
1,Dioctylstannanediyl bis 2-(4-methoxy-2-nitrophenylcarbamoyl)benzoate,3.72
2,"(1,10-Phenanthroline) trimethylstannyl 2-(4-methoxy-2-nitrophenylcarbamoyl)benzoate",4.61

# Test system: Staphylococcus epidermidis
# Assay: Antibacterial activity against Staphylococcus epidermidis assessed as zone of inhibition by measuring activity index after 24 to 48 hrs by well diffusion method relative to tetracycline
# Assay type: functional, organism-based
row,Substance,Activity index
1,Dioctylstannanediyl bis 2-(4-methoxy-2-nitrophenylcarbamoyl)benzoate,1.13

# Test system: Staphylococcus epidermidis
# Assay: Antibacterial activity against Staphylococcus epidermidis assessed as zone of inhibition by measuring activity index after 24 to 48 hrs by well diffusion method relative to penicillin G
# Assay type: functional, organism-based
row,Substance,Activity_index
1,"(1,10-Phenanthroline) trimethylstannyl 2-(4-methoxy-2-nitrophenylcarbamoyl)benzoate",inactive

# Test system: Staphylococcus epidermidis
# Assay: Antibacterial activity against Staphylococcus epidermidis assessed as zone of inhibition by measuring activity index after 24 to 48 hrs by well diffusion method relative to ampicillin
# Assay type: functional, organism-based
row,Substance,Activity_index
1,"(1,10-Phenanthroline) trimethylstannyl 2-(4-methoxy-2-nitrophenylcarbamoyl)benzoate",inactive

# Test system: Staphylococcus epidermidis
# Assay: Antibacterial activity against Staphylococcus epidermidis assessed as zone of inhibition by measuring activity index after 24 to 48 hrs by well diffusion method relative to amoxicillin
# Assay type: functional, organism-based
row,Substance,Activity index
1,Dioctylstannanediyl bis 2-(4-methoxy-2-nitrophenylcarbamoyl)benzoate,5.67

# Test system: Staphylococcus aureus
# Assay: Antibacterial activity against Staphylococcus aureus assessed as zone of inhibition by measuring activity index after 24 to 48 hrs by well diffusion method relative to tetracycline
# Assay type: functional, organism-based
row,Substance,Activity_index
1,Dioctylstannanediyl bis 2-(4-methoxy-2-nitrophenylcarbamoyl)benzoate,inactive

# Test system: Staphylococcus aureus
# Assay: Antibacterial activity against Staphylococcus aureus assessed as zone of inhibition by measuring activity index after 24 to 48 hrs by well diffusion method relative to penicillin G
# Assay type: functional, organism-based
row,Substance,Activity_index
1,Dioctylstannanediyl bis 2-(4-methoxy-2-nitrophenylcarbamoyl)benzoate,inactive

# Test system: Staphylococcus aureus
# Assay: Antibacterial activity against Staphylococcus aureus assessed as zone of inhibition by measuring activity index after 24 to 48 hrs by well diffusion method relative to ampicillin
# Assay type: functional, organism-based
row,Substance,Activity_index
1,Dioctylstannanediyl bis 2-(4-methoxy-2-nitrophenylcarbamoyl)benzoate,inactive

# Test system: Staphylococcus aureus
# Assay: Antibacterial activity against Staphylococcus aureus assessed as zone of inhibition by measuring activity index after 24 to 48 hrs by well diffusion method relative to amoxicillin
# Assay type: functional, organism-based
row,Substance,Activity_index
1,Dioctylstannanediyl bis 2-(4-methoxy-2-nitrophenylcarbamoyl)benzoate,inactive

# Test system: Serratia marcescens
# Assay: Antibacterial activity against Serratia marcescens assessed as zone of inhibition by measuring activity index after 24 to 48 hrs by well diffusion method relative to penicillin G
# Assay type: functional
row,Substance,Activity index
1,Dioctylstannanediyl bis 2-(4-methoxy-2-nitrophenylcarbamoyl)benzoate,0.63
2,"(1,10-Phenanthroline) trimethylstannyl 2-(4-methoxy-2-nitrophenylcarbamoyl)benzoate",2.5

# Test system: Serratia marcescens
# Assay: Antibacterial activity against Serratia marcescens assessed as zone of inhibition by measuring activity index after 24 to 48 hrs by well diffusion method relative to ampicillin
# Assay type: functional
row,Substance,Activity index
1,Dioctylstannanediyl bis 2-(4-methoxy-2-nitrophenylcarbamoyl)benzoate,0.63
2,"(1,10-Phenanthroline) trimethylstannyl 2-(4-methoxy-2-nitrophenylcarbamoyl)benzoate",2.5

# Test system: Serratia marcescens
# Assay: Antibacterial activity against Serratia marcescens assessed as zone of inhibition by measuring activity index after 24 to 48 hrs by well diffusion method relative to amoxicillin
# Assay type: functional
row,Substance,Activity index
1,Dioctylstannanediyl bis 2-(4-methoxy-2-nitrophenylcarbamoyl)benzoate,0.84
2,"(1,10-Phenanthroline) trimethylstannyl 2-(4-methoxy-2-nitrophenylcarbamoyl)benzoate",3.34

# Test system: Pseudomonas aeruginosa
# Assay: Antibacterial activity against Pseudomonas aeruginosa assessed as zone of inhibition by measuring activity index after 24 to 48 hrs by well diffusion method relative to tetracycline
# Assay type: functional, organism-based
row,Substance,Activity index
1,"(1,10-Phenanthroline) trimethylstannyl 2-(4-methoxy-2-nitrophenylcarbamoyl)benzoate",1.89

# Test system: Pseudomonas aeruginosa
# Assay: Antibacterial activity against Pseudomonas aeruginosa assessed as zone of inhibition by measuring activity index after 24 to 48 hrs by well diffusion method relative to penicillin G
# Assay type: functional, organism-based
row,Substance,Activity index
1,"(1,10-Phenanthroline) trimethylstannyl 2-(4-methoxy-2-nitrophenylcarbamoyl)benzoate",1.89

# Test system: Pseudomonas aeruginosa
# Assay: Antibacterial activity against Pseudomonas aeruginosa assessed as zone of inhibition by measuring activity index after 24 to 48 hrs by well diffusion method relative to ampicillin
# Assay type: functional, organism-based
row,Substance,Activity_index
1,Dioctylstannanediyl bis 2-(4-methoxy-2-nitrophenylcarbamoyl)benzoate,inactive

# Test system: Pseudomonas aeruginosa
# Assay: Antibacterial activity against Pseudomonas aeruginosa assessed as zone of inhibition by measuring activity index after 24 to 48 hrs by well diffusion method relative to amoxicillin
# Assay type: functional, organism-based
row,Substance,Activity index
1,"(1,10-Phenanthroline) trimethylstannyl 2-(4-methoxy-2-nitrophenylcarbamoyl)benzoate",1.89

# Test system: Escherichia coli
# Assay: Antibacterial activity against Escherichia coli assessed as zone of inhibition by measuring activity index after 24 to 48 hrs by well diffusion method relative to tetracycline
# Assay type: functional
row,Substance,Activity index
1,"(1,10-Phenanthroline) trimethylstannyl 2-(4-methoxy-2-nitrophenylcarbamoyl)benzoate",10.3

# Test system: Escherichia coli
# Assay: Antibacterial activity against Escherichia coli assessed as zone of inhibition by measuring activity index after 24 to 48 hrs by well diffusion method relative to penicillin G
# Assay type: functional, organism-based
row,Substance,Activity_index
1,Dioctylstannanediyl bis 2-(4-methoxy-2-nitrophenylcarbamoyl)benzoate,inactive

# Test system: Escherichia coli
# Assay: Antibacterial activity against Escherichia coli assessed as zone of inhibition by measuring activity index after 24 to 48 hrs by well diffusion method relative to ampicillin
# Assay type: functional, organism-based
row,Substance,Activity_index
1,Dioctylstannanediyl bis 2-(4-methoxy-2-nitrophenylcarbamoyl)benzoate,inactive

# Test system: Escherichia coli
# Assay: Antibacterial activity against Escherichia coli assessed as zone of inhibition by measuring activity index after 24 to 48 hrs by well diffusion method relative to amoxicillin
# Assay type: functional, organism-based
row,Substance,Activity_index
1,Dioctylstannanediyl bis 2-(4-methoxy-2-nitrophenylcarbamoyl)benzoate,inactive

# Test system: DNA
# Assay: Binding affinity to single-stranded DNA (unknown origin) after 10 mins by UV-visible spectrometric method
# Assay type: nucleic-acid assay
row,Substance,K
1,"(1,10-Phenanthroline) trimethylstannyl 2-(4-methoxy-2-nitrophenylcarbamoyl)benzoate",2.5 ×10⁴ /M

# Test system: NCI-H157
# Assay: Cytotoxicity against human NCI-H157 cells after 48 hrs by sulforhodamine B assay
# Assay type: functional, cell-based
row,Substance,Activity
1,Dioctylstannanediyl bis 2-(4-methoxy-2-nitrophenylcarbamoyl)benzoate,Dose-dependent effect
2,"(1,10-Phenanthroline) trimethylstannyl 2-(4-methoxy-2-nitrophenylcarbamoyl)benzoate",Dose-dependent effect

# Test system: DNA
# Assay: Binding affinity to single-stranded DNA (unknown origin) assessed as red shift up to 72 uM after 10 mins by UV-visible spectrometric method
# Assay type: nucleic-acid assay
row,Substance,Activity
1,"(1,10-Phenanthroline) trimethylstannyl 2-(4-methoxy-2-nitrophenylcarbamoyl)benzoate",< 3 nm
